Measured values taken from patent publication US5374641A, “N-(3-pyridylalkyl)sulfonamide compounds which have useful pharmaceutical activity” (Terumo Kabushiki Kaisha, priority 1991, dated 1994).

Legend:
[1] = tested on: tracheal smooth muscle contraction caused by the U-46619; assay: Test Example 3: Competitive activity against TXA2.PGH2 (tracheal smooth muscle contraction caused by U-46619); type: cell-based, Hartley guinea pig; settings: guinea pig trachea
Method: In vitro competitive activity (IC50) of the derivative of the present invention against TXA2· PGH2 was measured as follows.
(§1) Sections of tracheae excised from Hartley guinea pig males of 300 to 500 g in weight were suspended with a load of 0.3 g in Tyrode solution (30° C.) contained in a Magnus vessel which was aerated with a mixed gas system of 95% oxygen and 5% carbon dioxide. After about 1 hour of stabilization, U-46619 (a TXA2· PGH2 analog, manufactured by Cayman Chemical Co., Inc.) was added to the solution in a concentration of 10^-7 M. Thereafter, effect of the addition of the inventive N-(3-pyridylalkyl)sulfonamide derivative obtained in Example 4 on the tracheal smooth muscle contraction caused by the U-46619 was measured and the IC50 value was calculated.

[2] = tested on: platelet aggregation caused by U-46619; assay: Test Example 1: Platelet aggregation inhibiting activity (human PRP, U-46619); type: cell-based; settings: for IC50: Platelet, 320 nM U-46619, 37° C., read-out: Inhibitory effect against platelet aggregation caused by U-46619 (IC50); for platelet aggregation inhibiting activity (in words): U-46619
Method: (§2) A blood sample was collected from human fore arm using a syringe containing 3.8% sodium citrate solution (1/10 volume of the blood to be collected) and centrifuged to obtain platelet rich plasma (PRP; 3 ×10^5 platelets/μ1).
(§3) Platelet aggregation was measured using an aggregometer (Hematracer VI, Niko Bioscience Co., Ltd.) by putting 200 µl of the thus prepared PRP and 23.75 µl of physiological saline in a cuvette, setting the cuvette into the aggregometer and incubating the contents at 37° C. for 2 minutes, adding 1.25 μ1 dimethyl sulfoxide (DMSO) solution of each of the N-(3-pyridylalkyl)sulfonamide derivatives obtained in Examples 1, 3, 4, 6 and 8 and incubating for 3 minutes, and then adding U-46619 (Cayman Chemical Co., Inc.) which is a stable PGG2/ H2 derivative having a strong platelet aggregation causing activity.
In this instance, the term "IC50 "as used herein means concentration of the N-(3-pyridylalkyl)sulfonamide derivative of the present invention required to inhibit 50% of the platelet agglutination when platelet aggregation without introducing the inventive derivative was defined as 100%.

thromboxane synthetase [3] = target: T1, thromboxane synthetase (Homo sapiens, UniProt P24557); assay: Test Example 2: Thromboxane synthetase inhibiting activity (human PRP, thrombin, RIA); type: cell-based; settings: 20 U/ml thrombin, RIA, read-out: Inhibition of thromboxane A2 synthesis (IC50)
T1 sequence (P24557 1-533): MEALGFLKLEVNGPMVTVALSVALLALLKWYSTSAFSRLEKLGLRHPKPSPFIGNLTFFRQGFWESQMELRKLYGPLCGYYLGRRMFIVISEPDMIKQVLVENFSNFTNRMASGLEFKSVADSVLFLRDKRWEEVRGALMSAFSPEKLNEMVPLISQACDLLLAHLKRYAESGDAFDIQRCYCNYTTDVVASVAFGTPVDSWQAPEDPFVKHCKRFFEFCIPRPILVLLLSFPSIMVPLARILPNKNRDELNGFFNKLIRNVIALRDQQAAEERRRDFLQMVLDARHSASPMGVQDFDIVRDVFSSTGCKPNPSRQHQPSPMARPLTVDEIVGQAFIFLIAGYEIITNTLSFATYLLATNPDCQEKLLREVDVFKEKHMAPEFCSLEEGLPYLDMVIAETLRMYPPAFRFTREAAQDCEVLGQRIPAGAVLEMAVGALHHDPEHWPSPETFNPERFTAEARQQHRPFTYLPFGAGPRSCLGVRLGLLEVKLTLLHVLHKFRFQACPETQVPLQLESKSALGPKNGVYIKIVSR
Method: as §2
(§4) A 200 μ1 portion of the thus prepared PRP and 23.75 µl of physiological saline were put in a cuvette, the cuvette was set into the aforementioned aggregometer and the contents in the cuvette were incubated at 37° C. for 2 minutes. Thereafter, 1.25 μ1 dimethyl sulfoxide (DMSO) solution of each of the N-(3-pyridylalkyl)sulfonamide derivatives obtained in Examples 1, 3 and 7 was put in the cuvette and incubated for 3 minutes, followed by the addition of 20 U/ml solution of thrombin to cause platelet aggregation. A portion of the supernatant after aggregation reaction was mixed with diethyl ether/methanol/0.2M citric acid (30:4:1 ), and the thus formed thromboxane A2 was extracted and its quantity was analyzed by RIA using a kit of Amersham.

[4] = tested on: tracheal smooth muscle contraction caused by the U-46619; assay: Test Examples 8: Competitive activity against TXA2.PGH2 (tracheal smooth muscle contraction caused by U-46619); type: cell-based, Hartley guinea pig; settings: guinea pig trachea
Method: In vitro competitive activity (IC50) of the derivative of the present invention against TXA2 ·PGH2 was measured as follows.
as §1, with “TXA2 ·PGH2” for “TXA2· PGH2”, “Inc. )” for “Inc.)”

[5] = tested on: platelet aggregation caused by U-46619; assay: Test Examples 6: Platelet aggregation inhibiting activity (human PRP, U-46619); type: cell-based
Method: A blood sample was collected from human fore arm using a syringe containing 3.8% sodium citrate solution (1/10 volume of the blood to be collected) and centrifuged to obtain platelet rich plasma (PRP; 3×10^5 platelets/μl).
as §3, with “200 μof” for “200 µl of”, “23.75 μl” for “23.75 µl”, “1.25 μl” for “1.25 μ1”, “Examples 35, 36, 37” for “Examples 1, 3, 4, 6”, “and 42” for “and 8”, “stable PGG2 /H2” for “stable PGG2/ H2”
In this instance, the term "IC50 " as used herein means concentration of the N-(3-pyridylalkyl)sulfonamide derivative of the present invention required to inhibit 50% of the platelet aggregation when platelet aggregation without introducing the inventive derivative was defined as 100%.

thromboxane synthetase [6] = target: T1, thromboxane synthetase; assay: Test Example 7: Thromboxane synthetase inhibiting activity (human PRP, thrombin, RIA); type: cell-based
Method: A blood sample was collected from human fore arm using a syringe containing 3.8% sodium citrate solution (1/10 volume of the blood to be collected) and centrifuged to obtain platelet rich plasma (PRP; 3×10^5 platelets/μl ).
as §4, with “200 μl” for “200 μ1”, “23.75 μl” for “23.75 µl”, “Examples 36, 37, 38” for “Examples 1, 3”, “and 40” for “and 7”, “acid (30:4:1),” for “acid (30:4:1 ),”

[7] = Cavia porcellus, U-46619 10^-7 M, in vitro

In the case of `CCOC(=O)COc1ccc(C(CNS(=O)(=O)c2ccc(Cl)cc2)c2cccnc2)cc1` (stereo not shown) [Example 4, ethyl 4-[2-(4-chlorobenzenesulfonamido)-1-(3-pyridyl)ethyl]phenyloxyacetate], the “in vitro competitive activity against TXA2.PGH2 (in words)” value ([1]; U-46619) is reported as “excellent in vitro competitive activity”, the IC50 [2] is reported as 51 µM and the “platelet aggregation inhibiting activity (in words)” value [2] is reported as “markedly high platelet aggregation inhibiting activity”. The IC50 (thromboxane synthetase [3]) was 0.033 µM.

In the case of `O=C(O)COc1ccc(C(CNS(=O)(=O)c2ccc(Cl)cc2)c2cccnc2)cc1` (stereo not shown) [Example 5, 4-[2-(4-chlorobenzenesulfonamido)-1-(3-pyridyl)ethyl]phenyloxyacetic acid], the IC50 [1, 7] is reported as 6.7 µM, the IC50 [2] is reported as 16 µM and the “platelet aggregation inhibiting activity (in words)” value [2] is reported as “markedly high platelet aggregation inhibiting activity”.

In the case of `CCOC(=O)/C(C)=C/c1ccc(C(CNS(=O)(=O)c2ccc(Cl)cc2)Cc2cccnc2)cc1` (stereo not drawn) [Example 37, ethyl 4-[1-(4-chlorobenzenesulfonamido)-3-(3-pyridyl)-2-propyl]-α-methylcinnamate], the IC50 [4, 7] is reported as 0.088 µM, the “in vitro competitive activity against TXA2.PGH2 (in words)” value ([4]; U-46619) is reported as “excellent in vitro competitive” and the IC50 ([5]; Platelet, 320 nM U-46619, 37° C., read-out: Inhibitory effect against platelet aggregation caused by U-46619 (IC50)) is reported as 66 µM. The “platelet aggregation inhibiting activity (in words)” value ([5]; U-46619) was “markedly high platelet aggregation inhibiting activity”, the IC50 (thromboxane synthetase [6]; 20 U/ml thrombin, RIA, read-out: Inhibition of thromboxane A2 synthesis (IC50)) was 8.9 µM and the “thromboxane synthetase inhibiting activity (in words)” value (thromboxane synthetase [6]; thrombin) was “excellent thromboxane synthetase inhibiting activity”.
